{"source": "patent US8546556B2", "about": "“Carbocyclic alpha-L-bicyclic nucleic acid analogs” (Isis Pharmaceuticals, Inc, priority 2007, dated 2013)", "tested_on": "snake venom phosphodi-esterase (SVPD)", "conditions": "SVPD 0.0005 U/mL, 50 mM Tris-HCl pH 7.5, 8 mM MgCl2, 37° C., oligomer 5 μm; full-length oligomer by IP-HPLC/MS", "method": "[drawing 26] • The nuclease stability was determined after treatment with snake venom phosphodi-esterase (SVPD). Each of the test oligomers was incubated with SVPD (0.0005 U/mL) in 50 mM Tris-HCl, pH 7.5, 8 mM MgCl2 at 37° C. to a final concentration of 5 μm in a total volume of 400 μL. At each time point, a 50 μL aliquot and quenching buffer (8 M Urea, 50 mM EDTA) was placed in a 500 μL, microfuge tube. Kinetic time points were taken at 0, 0.5, 1, 1.5, 2, and 4 minutes for 7157; 0, 0.5, 1, 1.5, 2, 2.5, 3 and 5 minutes for 440140. The samples were then cooled on ice and spun in a Microfuge to bring the entire volume to the bottom of the tube. Samples were kept frozen until ready for LC/MS analysis.\nFor each sample the oligomer and metabolites were separated and analyzed using IP-HPLC/MS techniques. Samples were diluted to a concentration of 1 μM with quenching buffer in a microsampling vial and 50 μL of the sample was injected into the IP-HPLC column (YMC ODS-AQ™ 1.0 mm×150 mm, 3 μm, 120 A°). The loading buffer used was 25 mM TBAA (tributyl ammonium acetate) in 25% acetonitrile. […] The percentages of the full-length oligomers were calculated by integration using Caesar v. 6 software (Senetec Software, New Jersey) and the oligonucleotide half-lives were calculated using GraphPad Prism 4.", "data": [{"sequence": "TTTTTTTTTTTT [ISIS 7157]", "values": [{"measurement": "Half Life", "result": 24, "unit": "s"}]}]}
